# Test results: patent US20210332024A1, “MODULATORS OF PIN1 ACTIVITY AND USES THEREOF” (Yeda Research and Development Co. Ltd., priority 2019, published 2021)
# Experiments:
# [1] = tested on: MDA-MB-468 breast adenocarcinoma cells; test: Prolonged-treatment cell growth, MDA-MB-468; format: cell-based; conditions: MDA-MB-468, 1 or 2.5 μM
# Procedure: (§1) The ability of Pin1-3 treatment to induce more pronounced anti-proliferative effects after prolonged treatment (6-8 days) was then assessed. In order to ensure that target engagement was maintained for the duration of the experiment, Pin1-3 was replenished in fresh media every 48 hours.
# [2] = tested on: MDA-MB-231 cells; test: Cell viability assay (CellTiter-Glo); format: cell-based; conditions: Homo sapiens; cell viability assay with MDA-MB-231 cells
# Procedure: MDA-MB-231 cells grew in DMEM medium supplemented with 10% FCS (fetal calf serum), 1% PS (penicillin-streptomycin) and 1% L-glutamine (all from Biological Industries). Exclusion of mycoplasma contamination was monitored and conducted by test with MycoAlert™ kit (Lonza). Cells were trypsinized and counted, and 1000 cells/well were plated in 50 μl of growth medium into 384-well white TC plates (Greiner) using Multidrop™ 384 (Thermo Scientific) Washer Dispenser II. The number of viable cells was monitored using CellTiter-Glo® Luminescent kit (Promega) in accordance with the manufacturer's protocol. Luminescence was measured using luminescence module of PHERAstar™ FS plate reader (BMG Labtech). Data analysis was performed using GeneData 12 analytic software. Assay ready plate preparation: Compounds transferred into black microplates (Greiner 784900) using Labcyte Echo® acoustic dispensing technology. Assay ready plates were then sealed with heat seals. If not used immediately, plates were frozen at −20° C. and held in polypropylene boxes with silica-gel desiccant.
# Exemplary Pin1-binding compounds were also tested for non-selective cytotoxicity in a viability assay against IMR90 lung fibroblasts.
# [3] = tested on: 300 suspension and hematopoietic human cancer cell lines; test: PRISM anti-proliferative profiling; format: cell-based; conditions: 120 h, all 300 cancer cell lines, 5-day treatment
# Source text: In order to profile the anti-proliferative activity of Pin1-3, the compound was submitted to the PRISM platform (Broad Institute) to evaluate its potency against 300 suspension and hematopoietic human cancer cell lines. The PRISM method enables high-throughput, pooled screening of mixtures of cell lines, which are each labeled with a 24-nucleotide barcode [Yu et al., Nat Biotechnol 2016, 34:419-423].
# [4] = tested on: PDAC organoids; test: PDAC organoid growth; format: cell-based, human; conditions: treated for 7 days
# Procedure: Pancreatic ductal adenocarcinoma (PDAC) cells (derived from a human patient) were treated with Pin1-3 for 3 days. PDAC organoids were treated with Pin1-3 for 7 days (day 7 to day 14).
# [5] = tested on: Myc transcriptional output in Mino B cells; test: RNA sequencing and gene set enrichment; format: cell-based, human; conditions: 1 μM, 6 hours
# Procedure: Mino cells (acquired from the ATCC) were grown at 37° C. in a 5% CO2 humidified incubator and cultured in RPMI-1640 (Biological Industries), supplemented with 15% fetal bovine serum (Biological Industries) and 1% pen-strep solution (Biological Industries). 11×10^6 cells were incubated with 1 μM Pin1-3 (0.02% DMSO) or with 0.02% DMSO in triplicates for 6 hours. Total RNA was isolated with RNeasy™ kit (Qiagen). RNA libraries were prepared from 2 μg total RNA using SENSE™ mRNA-Seq library prep kit V2 (Lexogen). Total RNA and library quality was analyzed using Qubit™ fluorometric and TapeStation™ analysis (Agilent). Samples were sequenced using NextSeg™ 500/550 High Output Kit v2.5 (Illumina) on NextSeg™ 550.
# RNA-seq reads were aligned to the human genome (hg19 assembly) using STAR [Dobin et al., Bioinformatics 2013, 29:15-21] and gene expression was determined using RSEM [L1 & Dewey, BMC Bioinformatics 2011, 12:323] and RefSeq annotations. Differential expression was computed using DESeq2 [Love et al., Genome Biol 2014, 15:550] with default parameters.
# In order to test whether Pin1-3 affects Myc transcriptional output, Mino B cells were treated with Pin1-3 (1 μM) for 6 hours (in triplicates) or vehicle (DMSO), followed by a global RNA sequencing analysis to detect differentially expressed genes as the result of this perturbation. […]
# [6] = tested on: PC3 prostate cancer cells; test: Prolonged-treatment cell growth, PC3; format: cell-based; conditions: PC3, 1 or 2.5 μM
# Procedure: as §1
# [7] = tested on: cysteine targets throughout the proteome, MDA-MB-231 cells; test: rdTOP-ABPP profiling of reactive cysteines; conditions: 5 μM
# Procedure: (§2) MDA-MB-231 cells were cultured at 37° C. under a 5% CO2 atmosphere in DMEM culture medium supplemented with 10% FBS and 1% PS. Cells were grown to 70% confluence and incubated with DMSO or 5 μM Pin1-3 for 2 hours with serum-free medium. Cells were harvested, lysed by sonication in ice-cold PBS containing 0.1% Triton™ X-100 and centrifuged at 100,000 g for 30 minutes to remove cell debris. Then protein concentrations were determined by BCA protein assay. Proteomes were normalized to 2 mg/ml in 1 ml for each sample. Each of the DMSO and Pin1-3 incubated proteomes was treated with 100 μM iodoacetamide alkyne for 1 hour at room temperature. […] Finally, the samples were prepared, analyzed on LC-MS/MS and quantified according to procedures described in Yang et al. [Anal Chem 2018, 90:9576-9582]. […] LC-MS/MS data was analyzed by ProLuCID™ algorithm (as described by Xu et al. [J Proteomics 2015, 129:16-24]) with static modification of cysteine (+57.0215 Da) and variable oxidation of methionine (+15.9949 Da). […] The ratios were quantified by CImage™ software [Weerapana et al., Nature 2010, 468, 790-795].
# (§3) This variant of the isoTOP-ABPP technique enables the site-specific quantification of cysteine binding by label-free covalent inhibitors. […] After enrichment on beads, the peptides were isotopically derivatized by triplex reductive dimethylation, cleaved and analyzed via LC-MS/MS analysis.
# [8] = biological target: cysteine targets throughout the proteome, MDA-MB-231 cells (Homo sapiens, UniProt Q13526); test: rdTOP-ABPP profiling of reactive cysteines; conditions: 5 μM, two biological replicates
# Chain of cysteine targets throughout the proteome, MDA-MB-231 cells (Homo sapiens, UniProt Q13526) (Q13526 whole entry): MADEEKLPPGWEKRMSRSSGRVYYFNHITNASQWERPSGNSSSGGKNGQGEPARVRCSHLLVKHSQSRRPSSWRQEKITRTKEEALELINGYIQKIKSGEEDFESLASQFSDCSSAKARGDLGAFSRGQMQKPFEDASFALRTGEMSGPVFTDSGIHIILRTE
# Procedure: as §2, §3
# [9] = biological target: GST-Pin1 (Homo sapiens, UniProt Q13526); test: Pin1 substrate activity assay (chymotrypsin-coupled PPIase assay); format: biochemical; conditions: pre-incubation 12 hours at 4° C.
# Chain of GST-Pin1 (Q13526 whole entry): as above
# Procedure: Inhibition of Pin1 isomerase activity was determined using the chymotrypsin-coupled PPIase assay, using GST-Pin1 and Suc-Ala-pSer-Pro-Phe-pNA (SEQ ID NO: 2) peptide substrate ([…]), according to procedures described by Yaffe [Science 1997, 278:1957-1960]. GST-Pin1 was pre-incubated with the indicated concentrations of compound for 12 hours at 4° C. in buffer containing 35 mM HEPES (pH 7.8), 0.2 mM DTT, and 0.1 mg/ml BSA (bovine serum albumin). Immediately before the assay was started, chymotrypsin (final concentration of 6 mg/ml), followed by the peptide substrate (Suc-Ala-pSer-Pro-Phe-pNA (SEQ ID NO: 2) peptide substrate, final concentration […]) was added. The apparent Ki value (under the tested conditions) obtained from the PPIase assay was derived from the Cheng-Prusoff equation: […]
# wherein Km is the Michaelis constant for the used substrate, S is the initial concentration of the substrate in the assay, and IC50 is the half-minimal inhibitory concentration of the inhibitor.
# Covalent labeling of Pin1 was confirmed to translate into enzyme inhibition via a fluorescence polarization (FP) competition assay using a FITC-labeled substrate mimetic peptide inhibitor, as well as a chymotrypsin-coupled PPIase assay, using procedures described in Wei et al. [Nat Med 2015, 21:457-466].
compound,measurement,setting,value
"CC(C)(C)CN(C(=O)CCl)C1CCS(=O)(=O)C1 (stereo not shown) [Pin1-3, 2-chloro-N-(sulfolan-3-yl)-N-neopentylacetamide]",Cell growth,[1],long-term inhibition
same,EC50,[2],> 25000 nM
same,IC50,[3],> 3000 nM
same,PDAC organoid growth,[4],inhibited PDAC organoid growth in a dose-dependent manner
same,"Myc transcriptional signature (Enrichr, ENCODE TF ChIP-seq sets)",[5],significant downregulation of Myc's transcriptional signature
same,Number of genes significantly downregulated,[5],206 genes
same,Cell growth,[6],long-term inhibition
same,"Competition ratio R, all other identified cysteines",[7],below 2.5
same,"Competition ratio R, Cys113 of Pin1",[8],15
same,IC50,[9],103 nM
